Data from patent US20170081300A1, “SYDNONE DERIVATIVES FOR CONJUGATION OF COMPOUNDS OF INTEREST” (UNIVERSITE DE STRASBOURG, priority 2014, published 2017).

Assays:
Format in all cases: physicochemical
[1] = Kinetic study of the coupling reaction of sydnones with cyclic alkyne BCN in PBS/DMSO (HPLC); details: for K (BCN), second order kinetic constant: PBS/DMSO (9:1), 100 μM sydnone, 150 μM BCN
Protocol: (§1) The kinetics of the coupling reaction of different sydnones with two cyclic alkynes was studied, according to the following scheme.
(§2) Reactions of sydnones with BCN (or TMTH) were carried out in PBS/DMSO (9:1) mixtures at 100 μM concentration of sydnones and 150 μM concentration of BCN using the following procedure:
(§3) To 900 μL of phosphate buffered saline (PBS, 100 mM) was added 87.5 μL of DMSO, 10 μL of the solution of benzamide (internal standard, 100 mM in DMSO), 1 μL of the solution of sydnone (100 mM in DMSO) and 1.5 μL of the solution of BCN (100 mM in DMSO). The reaction mixture was injected in HPLC every 30 min and the conversion was followed by measuring the normalized sydnone peak area.
(§4) Second order reaction rate was determined by plotting ln([A]/[B])/([A]−[B]) versus time and analyzing by linear regression. Second order rate constant corresponds to the determined slope.

[2] = HPLC monitoring of the cycloaddition reaction with BCN in blood plasma; details: 100 μM sydnone, 150 μM BCN, after 1 hour
Protocol: Reactions of sydnone S1-2 with bicyclononyne BCN was carried out in blood plasma at 100 μM concentration of sydnone and 150 μM concentration of cyclooctyne BCN using the following procedure:
as §3, with “blood plasma were” for “phosphate buffered saline (PBS, 100 mM) was”, “added” for “added 87.5 μL of DMSO,”

[3] = Kinetic study of the coupling reaction of sydnones with cyclic alkyne TMTH in PBS/DMSO (HPLC); details: PBS/DMSO (9:1), 100 μM sydnone
Protocol: as §1, §2, §3, §4

SMILES: O=C(O)c1ccc(-[n+]2cc([O-])on2)cc1 [Sydnone S0-4, 3-(4-carboxyphenyl)-1,2,3λ^5-oxadiazol-3-ylium-5-olate, reference compound]
- K (BCN), second order kinetic constant [1]: 0.059 ± 0.001 M⁻¹ s⁻¹

SMILES: O=C(O)c1ccc(-[n+]2noc([O-])c2Cl)cc1 [Sydnone S1-2, 3-(4-carboxyphenyl)-4-chloro-1,2,3λ^5-oxadiazol-3-ylium-5-olate]
- conversion of sydnone in reaction with BCN [2]: almost complete reaction
- ratio of K constant (BCN) to K constant of the corresponding sydnone not substituted in position 4 ([1]; K(S1-1)/K(S0-3), K(S1-2)/K(S0-4)): 27
- K (BCN), second order kinetic constant [1]: 1.593 ± 0.034 M⁻¹ s⁻¹
- K (TMTH), second order kinetic constant [3]: 322 M⁻¹ s⁻¹

SMILES: O=C(O)c1ccc(-[n+]2noc([O-])c2Br)cc1 [Sydnone S2-2, 4-bromo-3-(4-carboxyphenyl)-1,2,3λ^5-oxadiazol-3-ylium-5-olate]
- K (BCN), second order kinetic constant [1]: 0.798 ± 0.065 M⁻¹ s⁻¹
- K (TMTH), second order kinetic constant [3]: 101 M⁻¹ s⁻¹
